Reference: patent publication US6248712A, “Urokinase-type plasminogen activator receptor” (Cancerforskningsfondet af 1989, priority 1995, dated 2001)

Key:
U937 cells = assay: Fate of receptor-bound u-PA:PAI-1 complex on U937 cells; type: cell-based, human; conditions: 0.5 mM chloroquine
Description: Binding assay. […] The cells were then acid-treated in 50 mM glycine-HCl, 100 mM NaCl (pH 3) for 3 minutes at 4° C. and quickly neutralized with half a volume of 0.5 M Hepes, 100 mM NaCl (pH 7.4). […] Non-specific binding was determined in the presence of 100 nM unlabelled u-PA.
The basic experiment was carried out in two steps: first, labelled ligands were incubated with acid-washed cells at 4° C. for 90 minutes (step 1). […] In step 2, the cells were incubated at 37° C. for 3 hours in binding buffer containing no ligands. The amount and the state of the ligand were assayed by quantitation of the radioactivity (and the extent of TCA precipitability) at different times during step 2. To this end, both the radioactivity recovered in the cell-associated form and in the supernatant were measured.

HT-1080 cells [1] = assay: Pro-u-PA index of cell-bound u-PA on HT-1080 cells in serum medium; type: cell-based, human; conditions: TA 100 μM with Plg 40 μg/ml and anti-PAI-1 antibody 10 μg/ml, 2 h at 37° C.
Description: Cell culture supernatants were assayed for pro-u-PA and active u-PA by the following modification of an immunocapture method (Stephens et al., 1988; Stephens et al., 1987). Microtitre wells of polystyrene immunoplates (type 269620, A/S Nunc, Roskilde, Denmark) were coated overnight at 37° C. with 50 μl of a solution of goat IgG antibodies to human u-PA (cat. # 398, American Diagnostica). The coating solution contained 2.5 μg of IgG per ml of 0.1 M sodium carbonate (pH 9.8). After rinsing, the wells were treated with conditioned medium ([…]) for 2 hours at 23° C., then rinsed again. […] This mixture was incubated for 30 minutes at 37° C., and the absorbancies of the wells were read at 405 nm. […]
Pro-u-PA and active u-PA bound to the cell layer were recovered for immunocapture assays by the same method as was used in the metabolic labelling (see above). […] For conditioned medium and cell-bound u-PA, the u-PA activity assayed after NPGB treatment was expressed as a percentage of the total activity obtained without NPGB treatment, and this percentage used as an index of pro-u-PA content (pro-u-PA index). […]

HT-1080 cells [2] = assay: Plasmin binding to and release from HT-1080 cells; type: cell-based, human
Description: Plasmin release from HT-1080 cells into serum-free and serum-containing media. Confluent layers of HT-1080 cells were first loaded with plasmin by incubation for 1 hour at 37° C. in serum-free MEM medium (0.5 ml) containing human plasmin (0-5 μg/ml). After rinsing the cell layers three times, they were incubated for 2 hours at 37° C. with either serum-free medium (.smallcircle.--.smallcircle.), medium containing 10% heat-inactivated and plasminogen-depleted fetal calf serum (.circle-solid.--.circle-solid.), or the latter with tranexamic acid (100 μM) (.box-solid.--.box-solid.). Plasmin was then assayed in the cell-bound fraction (A) and the media (B).
In the Examples concerning plasmin binding to cells from medium, human plasmin (approximately 18 CU/mg; Kabi Diagnostica, Stockholm, Sweden) was added to the cultures at final concentrations of 0-5 μg/ml. The cells were incubated for 3 hours at 37° C. before assay of cell-bound and supernatant plasmin (see below). For plasmin release experiments, cells were loaded for 1 hour at 37° C. with 0-5 μg/ml plasmin in serum-free medium, then rinsed three times with MEM.
Plasmin bound to the cell layer was recovered and assayed as follows. […] Plasmin activity was assayed in eluate samples (50 μl) as above with an incubation time of 3 hours at 37° C.

HT-1080 cells [3] = assay: u-PA activity in medium of HT-1080 cultures (immunocapture assay); type: cell-based; conditions: Homo sapiens, control = 100%; for activity at 10 µM: TA 10 μM with Plg 40 μg/ml; for activity at 100 µM: TA 100 μM with Plg 40 μg/ml
Description: S. et al., "Enzyme-linked immunosorbent assay for human urokinase-type plasminogen activators and its proenzyme using a combination of monoclonal and polyclonal antibodies", J. […] S. et al., "Monoclonal antibodies to human 54,000 molecular weight plasminogen activator inhibitor from fibrosarcoma cells--inhibitor neutralization and one-step affinity purification", Thromb. […] The coating solution contained 2.5 μg of IgG per ml of 0.1 M sodium carbonate (pH 9.8). After rinsing, the wells were treated with conditioned medium ([…]) for 2 hours at 23° C., then rinsed again. […] The other half (controls) received 50 μl of rinsing buffer (0.05% Tween 20 in PBS). […] The cultures were incubated for the times shown before assay of cell-bound plasmin.

plasmin [4] = target: T1, plasmin (Homo sapiens, UniProt P00747); assay: Plasmin-catalysed activation of pro-u-PA in solution; type: biochemical; conditions: tranexamic acid 100 μM; unpublished results
T1 sequence (P00747 581-810 limits assumed): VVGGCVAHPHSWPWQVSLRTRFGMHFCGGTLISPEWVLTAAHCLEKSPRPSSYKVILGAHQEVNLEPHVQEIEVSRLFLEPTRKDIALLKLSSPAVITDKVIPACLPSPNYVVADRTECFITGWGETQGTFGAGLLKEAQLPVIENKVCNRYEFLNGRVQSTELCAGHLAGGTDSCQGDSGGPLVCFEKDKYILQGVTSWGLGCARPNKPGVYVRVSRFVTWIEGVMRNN
T1 sequence (P00747 97-580 limits assumed): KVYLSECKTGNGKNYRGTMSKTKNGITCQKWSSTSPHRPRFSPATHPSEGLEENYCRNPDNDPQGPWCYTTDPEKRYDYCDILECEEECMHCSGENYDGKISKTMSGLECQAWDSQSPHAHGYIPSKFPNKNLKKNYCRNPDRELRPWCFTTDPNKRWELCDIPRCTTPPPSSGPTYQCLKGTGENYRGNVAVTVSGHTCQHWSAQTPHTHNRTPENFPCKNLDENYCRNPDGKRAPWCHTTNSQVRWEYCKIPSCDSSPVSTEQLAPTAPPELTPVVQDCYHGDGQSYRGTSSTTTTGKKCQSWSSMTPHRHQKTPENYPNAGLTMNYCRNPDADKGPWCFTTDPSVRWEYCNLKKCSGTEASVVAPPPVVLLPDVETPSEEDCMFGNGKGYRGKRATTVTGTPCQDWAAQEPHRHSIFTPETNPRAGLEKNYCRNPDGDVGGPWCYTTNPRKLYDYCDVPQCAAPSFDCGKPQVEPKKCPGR

HT-1080 cells [5] = assay: Formation of bound plasmin on HT-1080 cells in serum culture; type: cell-based, human; conditions: for Bound plasmin activity (%): 10% serum medium, Plg alone = 100%
plasmin [6] = target: T1, plasmin; assay: Plasmin thioesterase assay (Z-lysine thiobenzyl ester); type: biochemical; conditions: tranexamic acid 1 mM

SMILES	Ability of the u-PA:PAI-1 complex to bind to the U937 cells (U937 cells)	Pro-u-PA index (%) (HT-1080 cells [1])	Plasmin activity recovered from plasmin-loaded cells (HT-1080 cells [2]; 1 mM tranexamic acid in 10% serum medium, 2 h at 37° C.)	Binding of plasmin to the cells (HT-1080 cells [2]; tranexamic acid 100 μM)	activity at 10 µM (HT-1080 cells [3]; 3 h)	activity at 10 µM (HT-1080 cells [3]; 17 h)	activity at 100 µM (HT-1080 cells [3]; 3 h)	activity at 100 µM (HT-1080 cells [3]; 17 h)	Ability of plasmin to activate pro-u-PA in solution (plasmin [4])	Bound plasmin activity (%) (HT-1080 cells [5]; TA 10 μM with Plg 40 μg/ml, 3 h)	Bound plasmin activity (%) (HT-1080 cells [5]; TA 10 μM with Plg 40 μg/ml, 17 h)	Bound plasmin activity (HT-1080 cells [5]; TA 100 μM with Plg 40 μg/ml and anti-PAI-1 antibody 10 μg/ml, 2 h at 37° C.)	Bound plasmin activity (%) (HT-1080 cells [5]; TA 100 μM with Plg 40 μg/ml, 3 h)	Bound plasmin activity (%) (HT-1080 cells [5]; TA 100 μM with Plg 40 μg/ml, 17 h)	Effect on the thioesterase activity of plasmin (plasmin [6])
CCN(CC)CCCC(C)Nc1ccnc2cc(Cl)ccc12 (stereo not drawn) [chloroquine]	does not affect														
NC[C@H]1CC[C@H](C(=O)O)CC1 [tranexamic acid]		88%	no plasmin activity could be recovered	completely inhibits	116%	87%	92%	95%	does not affect	9.7%	34%	0 ng	2.2%	13%	no effect
